Consider one molecule from patent US5804554A, “Calcium channel blocking polypeptides from filistata hibernalis” (priority 1995, dated 1998).

The subject of this experiment is calcium channels. The conditions noted are these: read-out: IC50 values for blocking calcium channels; rat cerebellar granule cells, fura2 fluorescence, 37° C.

Usually IC50 stands for the concentration that gives 50% inhibition. `COc1ccc(CCN(C)CCCC(C#N)(c2ccc(OC)c(OC)c2)C(C)C)cc1OC` (stereo not shown) [Verapamil]: the IC50 is 4.8 µM.
